Data reported in patent publication US6919188B1, “Pseudomycin production by Pseudomonas syringae” (Eli Lilly and Company, priority 1999, dated 2005).
“Also recorded” adds a separate entry of the source. Starred links: 1 amine or outer side, 2 acyl side, 3 side chain; linkers in the order of their positions; H or OH if unused. Positions of bridges follow the written chain, without caps; N, C: chain ends. Non-standard residues stand in square brackets, D forms with d. Residues, ends and D or L forms follow the SMILES beside them. ξ: configuration not given here. *: point of attachment. Tetradecanoyl(3R-OH) = CCCCCCCCCCC[C@@H](O)CC(=O)*; Asp(3S-OH) = N[C@H](C(=O)O)[C@H](O)C(=O)O; Thr(4-Cl) = N[C@H](C(=O)O)[C@H](O)CCl; ξAsp(3ξ-OH) = NC(C(=O)O)C(O)C(=O)O; X3 = O=C(C(N[*:1])C(O)CCl)[*:2]; X1 = CCCCCCCCCCC(O)C(O)CC(=O)*; aThr = C[C@H](O)[C@H](N)C(=O)O; X2 = C/C=C(/N[*:1])C(=O)[*:2]; dDab = NCC[C@@H](N)C(=O)O; Dab = NCC[CH](N)C(=O)O; Dhb = C/C=C(\N)C(=O)O

Tests used:
[1] = test system: fungi, including important fungal pathogens in both humans and plants; conditions: isolated pseudomycins; spectrum of fungi; cited from earlier work
[2] = Toxicity of pseudomycins (general statement); conditions: no species or dose given
[3] = test system: fungi, including important fungal pathogens in both humans and plants; experiment: Antifungal activity of isolated pseudomycins (general statements, literature); type: cell-based; conditions: comparison with pseudomycins A, C, certain fungi

SMILES	antifungal activity [1]	toxicity [2]	potency against fungi compared to the other preferred pseudomycins [3]
C/C=C1/NC(=O)C(C(C)O)NC(=O)C(CCN)NC(=O)C(CCCCN)NC(=O)C(CC(=O)O)NC(=O)C(CCN)NC(=O)C(NC(=O)CC(O)C(O)CCCCCCCCCC)COC(=O)C(C(O)CCl)NC(=O)C(C(O)C(=O)O)NC1=O (centres unmarked) [Pseudomycin A] (X1-S[Dab]DK[Dab]T[X2][ξAsp(3ξ-OH)][X3]; ester 1-C; configuration not given here)	activity against a wide variety of fungi; also recorded: wide spectrum antifungal activity	generally acceptable toxicity	
C/C=C1\NC(=O)[C@H]([C@H](C)O)NC(=O)[C@H](CCN)NC(=O)[C@H](CCCCN)NC(=O)[C@H](CC(=O)O)NC(=O)[C@@H](CCN)NC(=O)[C@@H](NC(=O)C[C@H](O)CCCCCCCCCCC)COC(=O)[C@H]([C@H](O)CCl)NC(=O)[C@H]([C@H](O)C(=O)O)NC1=O [Pseudomycin B] ({Tetradecanoyl(3R-OH)}-S[dDab]DK[Dab][aThr][Dhb][Asp(3S-OH)][Thr(4-Cl)]; ester 1-C)	activity against a wide variety of fungi; also recorded: wide spectrum antifungal activity	generally acceptable toxicity; also recorded: lower level of toxicity	greater potency against certain fungi
